Reference: ChEMBL document CHEMBL3997794, “Design and synthesis of benzodiazepine analogs as isoform-selective human lysine deacetylase inhibitors” (Eur J Med Chem, 2017)

Experiments:
[1] = target: T1, Protein deacetylase HDAC6 (Homo sapiens, UniProt Q9UBN7); assay: Inhibition of human KDAC6 using FITC-labeled histone H4 acetylated peptide as substrate after 60 mins by fluorescence assay
T1 sequence (Q9UBN7 whole entry): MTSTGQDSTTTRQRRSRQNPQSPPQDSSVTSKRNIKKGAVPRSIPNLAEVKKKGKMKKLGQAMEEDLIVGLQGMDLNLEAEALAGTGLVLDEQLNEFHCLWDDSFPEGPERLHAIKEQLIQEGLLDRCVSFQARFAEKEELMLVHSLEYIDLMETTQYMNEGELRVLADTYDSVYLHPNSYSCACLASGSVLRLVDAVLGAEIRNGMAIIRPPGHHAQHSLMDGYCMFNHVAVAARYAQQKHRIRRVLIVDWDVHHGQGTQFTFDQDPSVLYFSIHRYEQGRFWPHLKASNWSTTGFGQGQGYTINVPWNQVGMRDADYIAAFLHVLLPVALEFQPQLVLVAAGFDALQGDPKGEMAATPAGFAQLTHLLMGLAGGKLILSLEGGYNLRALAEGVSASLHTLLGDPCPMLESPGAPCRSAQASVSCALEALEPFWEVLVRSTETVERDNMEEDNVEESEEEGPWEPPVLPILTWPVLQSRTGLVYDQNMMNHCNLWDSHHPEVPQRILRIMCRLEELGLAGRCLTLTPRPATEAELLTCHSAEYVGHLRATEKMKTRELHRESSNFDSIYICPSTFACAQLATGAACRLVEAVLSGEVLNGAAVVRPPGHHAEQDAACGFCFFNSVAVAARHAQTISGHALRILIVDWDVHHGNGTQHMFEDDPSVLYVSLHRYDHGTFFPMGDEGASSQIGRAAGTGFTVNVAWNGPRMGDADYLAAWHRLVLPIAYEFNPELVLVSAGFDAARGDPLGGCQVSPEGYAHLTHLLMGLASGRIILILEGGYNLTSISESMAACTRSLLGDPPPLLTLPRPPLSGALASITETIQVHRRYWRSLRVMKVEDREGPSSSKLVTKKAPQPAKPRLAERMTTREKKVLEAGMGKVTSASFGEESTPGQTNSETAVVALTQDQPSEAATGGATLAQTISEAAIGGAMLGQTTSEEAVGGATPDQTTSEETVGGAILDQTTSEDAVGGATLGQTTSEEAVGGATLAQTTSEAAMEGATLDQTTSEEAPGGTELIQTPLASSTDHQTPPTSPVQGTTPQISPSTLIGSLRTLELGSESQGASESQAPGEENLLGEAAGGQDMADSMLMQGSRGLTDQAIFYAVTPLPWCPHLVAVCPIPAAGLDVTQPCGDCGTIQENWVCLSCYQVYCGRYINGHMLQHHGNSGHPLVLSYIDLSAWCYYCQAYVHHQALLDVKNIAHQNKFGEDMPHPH

[2] = target: T2, Histone deacetylase 3 (Homo sapiens, UniProt O15379); assay: Inhibition of human KDAC3 at 30 uM using FITC-labeled p53 acetylated peptide as substrate after 60 mins by fluorescence assay relative to control
[3] = target: T3, Histone deacetylase 1 (Homo sapiens, UniProt Q13547); assay: Inhibition of human KDAC1 using substrate A after 60 mins by fluorescence assay
[4] = target: T2, Histone deacetylase 3; assay: Inhibition of human KDAC3 using FITC-labeled p53 acetylated peptide as substrate after 60 mins by fluorescence assay
[5] = target: T3, Histone deacetylase 1; assay: Inhibition of human KDAC1 at 30 uM using substrate A after 60 mins by fluorescence assay relative to control
[6] = target: T4, Histone deacetylase 8 (Homo sapiens, UniProt Q9BY41); assay: Inhibition of human KDAC8 after 60 mins by fluorescence assay
T4 sequence (Q9BY41 whole entry): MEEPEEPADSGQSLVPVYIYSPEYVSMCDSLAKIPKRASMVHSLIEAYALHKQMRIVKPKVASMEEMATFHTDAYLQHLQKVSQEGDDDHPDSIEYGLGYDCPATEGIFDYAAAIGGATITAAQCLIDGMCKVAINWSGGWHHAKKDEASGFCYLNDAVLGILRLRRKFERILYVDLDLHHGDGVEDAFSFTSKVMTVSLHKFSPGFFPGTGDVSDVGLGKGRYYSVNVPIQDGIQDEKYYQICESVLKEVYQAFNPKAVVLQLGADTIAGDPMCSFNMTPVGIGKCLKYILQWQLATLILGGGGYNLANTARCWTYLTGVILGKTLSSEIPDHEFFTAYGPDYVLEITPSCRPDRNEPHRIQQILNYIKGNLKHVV

[7] = target: T5, Histone deacetylase 8 (Homo sapiens) (UniProt Q9BY41); assay: Inhibition of human KDAC8 at 30 uM after 60 mins by fluorescence assay relative to control
T5 sequence (whole entry): T4 sequence (Q9BY41 whole entry)

[8] = target: T6, Protein deacetylase HDAC6 (Homo sapiens) (UniProt Q9UBN7); settings: at 30 µM
T6 sequence (whole entry): T1 sequence (Q9UBN7 whole entry)
Description: Inhibition of human KDAC6 at 30 uM using FITC-labeled histone H4 acetylated peptide as substrate after 60 mins by fluorescence assay relative to control

T2 sequence (O15379 whole entry): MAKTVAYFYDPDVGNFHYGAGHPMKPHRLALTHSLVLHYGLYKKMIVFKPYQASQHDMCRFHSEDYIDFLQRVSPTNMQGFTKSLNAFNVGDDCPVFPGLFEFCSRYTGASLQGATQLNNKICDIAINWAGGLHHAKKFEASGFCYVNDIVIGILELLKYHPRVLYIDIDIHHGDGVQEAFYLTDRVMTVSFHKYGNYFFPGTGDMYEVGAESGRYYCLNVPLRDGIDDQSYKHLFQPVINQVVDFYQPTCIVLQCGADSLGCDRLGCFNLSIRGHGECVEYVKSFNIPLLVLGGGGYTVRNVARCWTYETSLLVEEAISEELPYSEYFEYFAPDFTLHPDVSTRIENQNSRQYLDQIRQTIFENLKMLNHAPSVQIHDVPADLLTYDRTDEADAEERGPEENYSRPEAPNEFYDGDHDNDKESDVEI
T3 sequence (Q13547 whole entry): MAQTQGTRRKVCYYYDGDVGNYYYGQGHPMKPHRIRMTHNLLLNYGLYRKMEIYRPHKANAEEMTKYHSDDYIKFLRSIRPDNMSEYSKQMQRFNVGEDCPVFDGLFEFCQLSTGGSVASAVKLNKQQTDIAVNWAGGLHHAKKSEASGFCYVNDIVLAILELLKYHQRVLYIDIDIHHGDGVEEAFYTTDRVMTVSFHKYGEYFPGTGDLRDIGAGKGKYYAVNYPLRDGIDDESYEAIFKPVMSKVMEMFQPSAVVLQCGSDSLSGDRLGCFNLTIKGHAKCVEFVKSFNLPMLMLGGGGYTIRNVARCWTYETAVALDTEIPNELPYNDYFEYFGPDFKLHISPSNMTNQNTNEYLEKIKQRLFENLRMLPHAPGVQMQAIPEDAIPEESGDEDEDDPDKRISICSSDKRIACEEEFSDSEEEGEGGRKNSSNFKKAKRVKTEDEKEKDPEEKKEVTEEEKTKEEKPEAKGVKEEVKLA

Compound: O=C(CCCCN1C(=O)[C@@H](CS)N=C(c2ccccc2)c2ccccc21)NO
- IC50 [1]: 0.58 µM
- inhibition [2]: 100%
- IC50 [3]: 0.46 µM
- IC50 [4]: 0.18 µM
- inhibition [5]: 97.3%
- IC50 [6]: 8.11 µM
- inhibition [7]: 81.2%
- inhibition [8]: 96.9%

Compound: O=C(O)CC[C@@H]1N=C(c2ccccc2)c2ccccc2NC1=O
- IC50 [1]: > 30 µM
- inhibition [2]: 0%
- IC50 [3]: > 30 µM
- IC50 [4]: > 30 µM
- inhibition [5]: 2.44%
- IC50 [6]: > 30 µM
- inhibition [7]: 0%
- inhibition [8]: 0%

Compound: COC(=O)CCCCN1C(=O)[C@H](CC(C)C)N=C(c2ccccc2)c2ccccc21
- IC50 [1]: > 30 µM
- inhibition [2]: 0%
- IC50 [3]: > 30 µM
- IC50 [4]: > 30 µM
- inhibition [5]: 8.85%
- IC50 [6]: > 30 µM
- inhibition [7]: 7.63%
- inhibition [8]: 0%

Compound: CC(C)[C@@H]1N=C(c2ccccc2)c2ccccc2N(CCCCC(=O)NO)C1=O
- IC50 [1]: 1.35 µM
- inhibition [2]: 97%
- IC50 [3]: 5.27 µM
- IC50 [4]: 0.6 µM
- inhibition [5]: 81.4%
- IC50 [6]: 19.8 µM
- inhibition [7]: 59.4%
- inhibition [8]: 95.5%

Compound: CC(C)(C)OC(=O)n1cc(C[C@@H]2N=C(c3ccccc3)c3ccccc3NC2=O)c2ccccc21
- IC50 [1]: > 30 µM
- inhibition [2]: 1.32%
- IC50 [3]: > 30 µM
- IC50 [4]: > 30 µM
- inhibition [5]: 6.47%
- IC50 [6]: > 30 µM
- inhibition [7]: 0%
- inhibition [8]: 0%

Compound: C[C@@H]1N=C(c2ccccc2)c2ccccc2NC1=O
- IC50 [1]: > 30 µM
- inhibition [2]: 0%
- IC50 [3]: > 30 µM
- IC50 [4]: > 30 µM
- inhibition [5]: 7.49%
- IC50 [6]: > 30 µM
- inhibition [7]: 0%
- inhibition [8]: 0%

Compound: O=C(O)C[C@@H]1N=C(c2ccccc2)c2ccccc2NC1=O
- IC50 [1]: > 30 µM
- inhibition [2]: 0%
- IC50 [3]: > 30 µM
- IC50 [4]: > 30 µM
- inhibition [5]: 3.13%
- IC50 [6]: > 30 µM
- inhibition [7]: 0%
- inhibition [8]: 0%

Compound: Cc1c(C)c(S(=O)(=O)NC(=N)NCCC[C@@H]2N=C(c3ccccc3)c3ccccc3N(CCCCC(=O)NO)C2=O)c(C)c2c1OC(C)(C)C2
- IC50 [1]: 16.2 µM
- inhibition [2]: 94.6%
- IC50 [3]: > 30 µM
- IC50 [4]: 4.29 µM
- inhibition [5]: 39.1%
- IC50 [6]: > 30 µM
- inhibition [7]: 22.6%
- inhibition [8]: 70.2%

Compound: O=C(CCCNC(=O)CC[C@@H]1N=C(c2ccccc2)c2ccccc2NC1=O)NO
- IC50 [1]: 7.16 µM
- inhibition [2]: 87.2%
- IC50 [3]: 22.9 µM
- IC50 [4]: 5.17 µM
- inhibition [5]: 55.8%
- IC50 [6]: > 30 µM
- inhibition [7]: 33.6%
- inhibition [8]: 83.5%

Compound: Cc1c(C)c(S(=O)(=O)NC(=N)NCCC[C@@H]2N=C(c3ccccc3)c3ccccc3NC2=O)c(C)c2c1OC(C)(C)C2
- IC50 [1]: > 30 µM
- inhibition [2]: 0.47%
- IC50 [3]: > 30 µM
- IC50 [4]: > 30 µM
- inhibition [5]: 8%
- IC50 [6]: > 30 µM
- inhibition [7]: 7.99%
- inhibition [8]: 0%

Compound: CC(C)(C)Oc1ccc(C[C@@H]2N=C(c3ccccc3)c3ccccc3N(CCCCC(=O)O)C2=O)cc1
- IC50 [1]: > 30 µM
- inhibition [2]: 1.05%
- IC50 [3]: > 30 µM
- IC50 [4]: > 30 µM
- inhibition [5]: 4.65%
- IC50 [6]: > 30 µM
- inhibition [7]: 2.15%
- inhibition [8]: 0.28%

Compound: COC(=O)CCCCN1C(=O)[C@H](C)N=C(c2ccccc2)c2ccccc21
- IC50 [1]: > 30 µM
- inhibition [2]: 4.62%
- IC50 [3]: > 30 µM
- IC50 [4]: > 30 µM
- inhibition [5]: 9.4%
- IC50 [6]: > 30 µM
- inhibition [7]: 12.7%
- inhibition [8]: 8.84%

Compound: O=C(CC[C@@H]1N=C(c2ccccc2)c2ccccc2NC1=O)NC(c1ccccc1)(c1ccccc1)c1ccccc1
- IC50 [1]: > 30 µM
- inhibition [2]: 0%
- IC50 [3]: > 30 µM
- IC50 [4]: > 30 µM
- inhibition [5]: 7.59%
- IC50 [6]: > 30 µM
- inhibition [7]: 0%
- inhibition [8]: 0%

Compound: CC(C)(C)OC(=O)NCCCC[C@@H]1N=C(c2ccccc2)c2ccccc2N(CCCCC(=O)NO)C1=O
- IC50 [1]: 3.06 µM
- inhibition [2]: 98.8%
- IC50 [3]: 4.63 µM
- IC50 [4]: 0.59 µM
- inhibition [5]: 84.4%
- IC50 [6]: 21.8 µM
- inhibition [7]: 56%
- inhibition [8]: 89.9%

Compound: O=C(C[C@H]1N=C(c2ccccc2)c2ccccc2NC1=O)NO
- IC50 [1]: > 30 µM
- inhibition [2]: 1.64%
- IC50 [3]: > 30 µM
- IC50 [4]: > 30 µM
- inhibition [5]: 9.14%
- IC50 [6]: > 30 µM
- inhibition [7]: 19%
- inhibition [8]: 0%

Compound: CSCC[C@@H]1N=C(c2ccccc2)c2ccccc2N(CCCCC(=O)O)C1=O
- IC50 [1]: > 30 µM
- inhibition [2]: 0%
- IC50 [3]: > 30 µM
- IC50 [4]: > 30 µM
- inhibition [5]: 4.46%
- IC50 [6]: > 30 µM
- inhibition [7]: 2.75%
- inhibition [8]: 0%

Compound: NC(=O)CC[C@@H]1N=C(c2ccccc2)c2ccccc2N(CCCCC(=O)NO)C1=O
- IC50 [1]: 1.29 µM
- inhibition [2]: 94%
- IC50 [3]: 13.9 µM
- IC50 [4]: 1.94 µM
- inhibition [5]: 64.5%
- IC50 [6]: > 30 µM
- inhibition [7]: 30.8%
- inhibition [8]: 96%

Compound: NCCCC[C@@H]1N=C(c2ccccc2)c2ccccc2N(CCCCC(=O)NO)C1=O
- IC50 [1]: 12.1 µM
- inhibition [2]: 99.1%
- IC50 [3]: 6.54 µM
- IC50 [4]: 0.95 µM
- inhibition [5]: 79.5%
- IC50 [6]: > 30 µM
- inhibition [7]: 7.7%
- inhibition [8]: 73.4%

Compound: CC[C@H](C)[C@@H]1N=C(c2ccccc2)c2ccccc2N(CCCCC(=O)OC)C1=O
- IC50 [1]: > 30 µM
- inhibition [2]: 0%
- IC50 [3]: > 30 µM
- IC50 [4]: > 30 µM
- inhibition [5]: 2.83%
- IC50 [6]: > 30 µM
- inhibition [7]: 2.38%
- inhibition [8]: 0%

Compound: CC(C)(C)OC(=O)n1c(C[C@@H]2N=C(c3ccccc3)c3ccccc3N(CCCCC(=O)O)C2=O)cc2ccccc21
- IC50 [1]: > 30 µM
- inhibition [2]: 0.79%
- IC50 [3]: > 30 µM
- IC50 [4]: > 30 µM
- inhibition [5]: 11.3%
- IC50 [6]: > 30 µM
- inhibition [7]: 23.2%
- inhibition [8]: 7.4%

Compound: COC(=O)CCCCN1C(=O)[C@H](CC(=O)OC(C)(C)C)N=C(c2ccccc2)c2ccccc21
- IC50 [1]: > 30 µM
- inhibition [2]: 0%
- IC50 [3]: > 30 µM
- IC50 [4]: > 30 µM
- inhibition [5]: 3.65%
- IC50 [6]: > 30 µM
- inhibition [7]: 0%
- inhibition [8]: 0%

Compound: O=C(C[C@@H]1N=C(c2ccccc2)c2ccccc2NC1=O)NO
- IC50 [1]: > 30 µM
- inhibition [2]: 0%
- IC50 [3]: > 30 µM
- IC50 [4]: > 30 µM
- inhibition [5]: 9.99%
- IC50 [6]: > 30 µM
- inhibition [7]: 12.2%
- inhibition [8]: 0.88%

Compound: COC(=O)CCCCN1C(=O)CN=C(c2ccccc2)c2ccccc21
- IC50 [1]: > 30 µM
- inhibition [2]: 0%
- IC50 [3]: > 30 µM
- IC50 [4]: > 30 µM
- inhibition [5]: 0.19%
- IC50 [6]: > 30 µM
- inhibition [7]: 2.83%
- inhibition [8]: 0%

Compound: CC(C)(C)Oc1ccc(C[C@@H]2N=C(c3ccccc3)c3ccccc3N(CCCCC(=O)NO)C2=O)cc1
- IC50 [1]: 2.87 µM
- inhibition [2]: 98.4%
- IC50 [3]: 6.18 µM
- IC50 [4]: 0.85 µM
- inhibition [5]: 82%
- IC50 [6]: 3.3 µM
- inhibition [7]: 89.9%
- inhibition [8]: 92.1%
